This passage reports IC50 and DC50 results from patent US20240246977A1, “DEGRADATION OF BRUTON'S TYROSINE KINASE (BTK) BY CONJUGATION OF BTK INHIBITORS WITH E3 LIGASE LIGAND AND METHOD OF USE” (BeiGene Switzerland GmbH, priority 2021, published 2024).

In general, DC50 refers to the midpoint of the concentration-degradation curve.

The test system of one test is HEK-293 cells. Nature of the test: HEK-293 cytotoxicity detection (CellTiter-Glo). The test is classed as cell-based. As to conditions: Homo sapiens, 72 h, 72 h incubation, CellTiter-Glo luminescence, read-out: HEK293. The procedure, abridged: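 HEK-293 cells exposed 72 h to 8 compounds doses (4-fold dilutions, top stock 5 mM at 500×) in 0.2% DMSO. Viability by CellTiter-Glo luminescence; inhibition normalised to DMSO high control and low control, IC50 from four-parameter curve fit.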
In general terms: ATP-based viability assays read luminescence as a measure of living cells.

The next test addresses BTK (Homo sapiens, UniProt Q06187). Nature of the test: BTK cell degradation in TMD-8 cells, HTRF assay. The test is classed as cell-based. More on the design: endogenous in cells; host or cells: TMD-8 cells. As to conditions: 6 h treatment, IC50 (DC50) of BTK degradation. The procedure, abridged:
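BTK levels read by HTRF in lysates of TMD-8 cells exposed to compounds for 6 h, eight concentrations at 6-fold steps in 0.2% DMSO. Percent degradation versus DMSO and low controls was fitted with a four-parameter equation to give DC50; Dmax is maximal degradation.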
In general terms: Time-resolved FRET reads energy transfer from a long-lived donor to a nearby acceptor.

Sequence of BTK (Q06187 whole entry): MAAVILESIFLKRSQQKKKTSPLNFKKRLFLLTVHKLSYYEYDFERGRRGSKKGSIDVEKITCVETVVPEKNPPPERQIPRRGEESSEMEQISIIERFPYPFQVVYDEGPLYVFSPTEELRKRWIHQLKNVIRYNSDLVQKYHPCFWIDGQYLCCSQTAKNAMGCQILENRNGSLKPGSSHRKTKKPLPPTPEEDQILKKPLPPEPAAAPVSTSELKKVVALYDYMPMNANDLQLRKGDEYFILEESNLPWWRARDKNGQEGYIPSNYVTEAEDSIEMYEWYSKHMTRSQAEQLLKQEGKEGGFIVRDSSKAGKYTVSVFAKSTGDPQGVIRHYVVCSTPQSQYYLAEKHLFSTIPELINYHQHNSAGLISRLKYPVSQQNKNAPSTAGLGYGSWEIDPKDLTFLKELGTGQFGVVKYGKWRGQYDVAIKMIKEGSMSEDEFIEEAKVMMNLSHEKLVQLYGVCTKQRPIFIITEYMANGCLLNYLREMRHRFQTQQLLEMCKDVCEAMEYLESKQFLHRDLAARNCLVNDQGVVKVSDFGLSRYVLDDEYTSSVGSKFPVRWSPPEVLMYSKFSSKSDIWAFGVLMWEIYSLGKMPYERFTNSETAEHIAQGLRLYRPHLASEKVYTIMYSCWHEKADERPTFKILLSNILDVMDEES

For `Cc1cccc(NC(=O)c2ccc(-c3nn4c(c3C(N)=O)Nc3ccc(N5CCN(C(=O)Cc6cccc(N7CCC(=O)NC7=O)c6)CC5)cc3CC4)c(F)c2C)n1` [Example B75, 7-(4-(2-(3-(2,4-dioxotetrahydropyrimidin-1(2H)-yl)phenyl)acetyl)piperazin-1-yl)-2-(2-fluoro-3-methyl-4-((6-methylpyridin-2-yl)carbamoyl)phenyl)-9,10-dihydro-4H-benzo[d]pyrazolo[1,5-a][1,3]diazepine-3-carboxamide], the IC50 in the test with HEK-293 cells was greater than 10000 nM. For the same compound, at BTK, the 50% degradation concentration (DC50) turned out to be 30.1 nM.

For the compound `Cc1cccc(NC(=O)c2ccc(-c3nn4c(c3C(N)=O)Nc3ccc(N5CCN(CC6CCN(c7ccc(N8CCC(=O)N(CC(=O)OC(C)(C)C)C8=O)cc7)CC6)CC5)cc3CC4)c(F)c2C)n1` [Example B76, tert-butyl 2-(3-(4-(4-((4-(3-carbamoyl-2-(2-fluoro-3-methyl-4-((6-methylpyridin-2-yl)carbamoyl)phenyl)-9,10-dihydro-4H-benzo[d]pyrazolo[1,5-a][1,3]diazepin-7-yl)piperazin-1-yl)methyl)piperidin-1-yl)phenyl)-2,6-dioxotetrahydropyrimidin-1(2H)-yl)acetate], the IC50 in the test on HEK-293 cells was greater than 10000 nM. Further, at BTK, the half-maximal degradation concentration (DC50) is greater than 2000 nM.

In the case of `Cc1cccc(N(CC(=O)OC(C)(C)C)C(=O)c2ccc(-c3nn4c(c3C(N)=O)Nc3ccc(N5CCN(CC6CCN(c7ccc(N8CCC(=O)N(CC(=O)OC(C)(C)C)C8=O)cc7)CC6)CC5)cc3CC4)c(F)c2C)n1` [Example B77, tert-butyl 2-(3-(4-(4-((4-(2-(4-((2-(tert-butoxy)-2-oxoethyl)(6-methylpyridin-2-yl)carbamoyl)-2-fluoro-3-methylphenyl)-3-carbamoyl-9,10-dihydro-4H-benzo[d]pyrazolo[1,5-a][1,3]diazepin-7-yl)piperazin-1-yl)methyl)piperidin-1-yl)phenyl)-2,6-dioxotetrahydropyrimidin-1(2H)-yl)acetate], the IC50 in the test on HEK-293 cells was found to be 38.3 nM. In addition, on BTK, the half-maximal degradation concentration (DC50) was greater than 2000 nM.

Turning to `Cc1cccc(NC(=O)c2ccc(-c3nn4c(c3C(N)=O)Nc3ccc(N5CCN(CC6CCN(c7ccc(N8CCC(=O)N(COC(=O)C(C)(C)C)C8=O)cc7)CC6)CC5)cc3CC4)c(F)c2C)n1` [Example B78, (3-(4-(4-((4-(3-carbamoyl-2-(2-fluoro-3-methyl-4-((6-methylpyridin-2-yl)carbamoyl)phenyl)-9,10-dihydro-4H-benzo[d]pyrazolo[1,5-a][1,3]diazepin-7-yl)piperazin-1-yl)methyl)piperidin-1-yl)phenyl)-2,6-dioxotetrahydropyrimidin-1(2H)-yl)methyl pivalate], the IC50 in the test on HEK-293 cells is greater than 10000 nM. For the same compound, at BTK, the 50% degradation concentration (DC50) was found to be 6.27 nM.

On to `Cc1cccc(N(COC(=O)C(C)(C)C)C(=O)c2ccc(-c3nn4c(c3C(N)=O)Nc3ccc(N5CCN(CC6CCN(c7ccc(N8CCC(=O)N(COC(=O)C(C)(C)C)C8=O)cc7)CC6)CC5)cc3CC4)c(F)c2C)n1` [Example B79, (3-(4-(4-((4-(3-carbamoyl-2-(2-fluoro-3-methyl-4-((6-methylpyridin-2-yl)((pivaloyloxy)methyl)carbamoyl)phenyl)-9,10-dihydro-4H-benzo[d]pyrazolo[1,5-a][1,3]diazepin-7-yl)piperazin-1-yl)methyl)piperidin-1-yl)phenyl)-2,6-dioxotetrahydropyrimidin-1(2H)-yl)methyl pivalate], for which the IC50 with HEK-293 cells was greater than 10000 nM. At BTK, this compound registered a half-maximal degradation concentration (DC50) of 3.68 nM.

Regarding `Cc1cccc(NC(=O)c2ccc(-c3nn4c(c3C(N)=O)Nc3ccc(N5CCN(CC6CCN(c7ccc(N8CCC(=O)N(CC(=O)OCc9ccccc9)C8=O)cc7)CC6)CC5)cc3CC4)c(F)c2C)n1` [Example B80, benzyl 2-(3-(4-(4-((4-(3-carbamoyl-2-(2-fluoro-3-methyl-4-((6-methylpyridin-2-yl)carbamoyl)phenyl)-9,10-dihydro-4H-benzo[d]pyrazolo[1,5-a][1,3]diazepin-7-yl)piperazin-1-yl)methyl)piperidin-1-yl)phenyl)-2,6-dioxotetrahydropyrimidin-1(2H)-yl)acetate], the IC50 with HEK-293 cells was greater than 10000 nM. Also, the DC50 on BTK was greater than 2000 nM.

As to `Cc1cccc(N(CC(=O)OCc2ccccc2)C(=O)c2ccc(-c3nn4c(c3C(N)=O)Nc3ccc(N5CCN(CC6CCN(c7ccc(N8CCC(=O)N(CC(=O)OCc9ccccc9)C8=O)cc7)CC6)CC5)cc3CC4)c(F)c2C)n1` [Example B81, benzyl 2-(3-(4-(4-((4-(2-(4-((2-(benzyloxy)-2-oxoethyl)(6-methylpyridin-2-yl)carbamoyl)-2-fluoro-3-methylphenyl)-3-carbamoyl-9,10-dihydro-4H-benzo[d]pyrazolo[1,5-a][1,3]diazepin-7-yl)piperazin-1-yl)methyl)piperidin-1-yl)phenyl)-2,6-dioxotetrahydropyrimidin-1(2H)-yl)acetate], the IC50 with HEK-293 cells turned out to be 56.8 nM. Also, the DC50 on BTK was greater than 2000 nM.

For `Cc1c(C(=O)Nc2ccn(C)n2)ccc(-c2nn3c(c2C(N)=O)Nc2ccc(N4CCN(CC5CCN(c6ccc(N7CCC(=O)NC7=O)cc6)CC5)CC4)cc2CC3)c1F` [Example B82, 7-(4-((1-(4-(2,4-dioxotetrahydropyrimidin-1(2H)-yl)phenyl)piperidin-4-yl)methyl)piperazin-1-yl)-2-(2-fluoro-3-methyl-4-((1-methyl-1H-pyrazol-3-yl)carbamoyl)phenyl)-9,10-dihydro-4H-benzo[d]pyrazolo[1,5-a][1,3]diazepine-3-carboxamide], the IC50 in the test on HEK-293 cells was greater than 10000 nM. Also, at BTK, the DC50 came to 4.1 nM.

On to `Cc1c(C(=O)Nc2nccs2)ccc(-c2nn3c(c2C(N)=O)Nc2ccc(N4CCN(CC5CCN(c6ccc(N7CCC(=O)NC7=O)cc6)CC5)CC4)cc2CC3)c1F` [Example B83, 7-(4-((1-(4-(2,4-dioxotetrahydropyrimidin-1(2H)-yl)phenyl)piperidin-4-yl)methyl)piperazin-1-yl)-2-(2-fluoro-3-methyl-4-(thiazol-2-ylcarbamoyl)phenyl)-9,10-dihydro-4H-benzo[d]pyrazolo[1,5-a][1,3]diazepine-3-carboxamide], for which the IC50 with HEK-293 cells is greater than 10000 nM. Further, it took 2.9 nM to reach half-maximal degradation at BTK (DC50).

As for `Cc1c(C(=O)Nc2ncn(C)n2)ccc(-c2nn3c(c2C(N)=O)Nc2ccc(N4CCN(CC5CCN(c6ccc(N7CCC(=O)NC7=O)cc6)CC5)CC4)cc2CC3)c1F` [Example B84, 7-(4-((1-(4-(2,4-dioxotetrahydropyrimidin-1(2H)-yl)phenyl)piperidin-4-yl)methyl)piperazin-1-yl)-2-(2-fluoro-3-methyl-4-((1-methyl-1H-1,2,4-triazol-3-yl)carbamoyl)phenyl)-9,10-dihydro-4H-benzo[d]pyrazolo[1,5-a][1,3]diazepine-3-carboxamide], in the test with HEK-293 cells, the IC50 is greater than 10000 nM. Besides, at BTK, the DC50 was 2.32 nM.

In the case of `Cc1c(C(=O)Nc2nc(C(F)(F)F)n[nH]2)ccc(-c2nn3c(c2C(N)=O)Nc2ccc(N4CCN(CC5CCN(c6ccc(N7CCC(=O)NC7=O)cc6)CC5)CC4)cc2CC3)c1F` [Example B85, 7-(4-((1-(4-(2,4-dioxotetrahydropyrimidin-1(2H)-yl)phenyl)piperidin-4-yl)methyl)piperazin-1-yl)-2-(2-fluoro-3-methyl-4-((3-(trifluoromethyl)-1H-1,2,4-triazol-5-yl)carbamoyl)phenyl)-9,10-dihydro-4H-benzo[d]pyrazolo[1,5-a][1,3]diazepine-3-carboxamide], in the test with HEK-293 cells, the IC50 was greater than 10000 nM. At BTK, it took 1.87 nM to reach half-maximal degradation (DC50).

With `Cc1c(C(=O)Nc2cc(C)n(C)n2)ccc(-c2nn3c(c2C(N)=O)Nc2ccc(N4CCN(CC5CCN(c6ccc(N7CCC(=O)NC7=O)cc6)CC5)CC4)cc2CC3)c1F` [Example B86, 2-(4-((1,5-dimethyl-1H-pyrazol-3-yl)carbamoyl)-2-fluoro-3-methylphenyl)-7-(4-((1-(4-(2,4-dioxotetrahydropyrimidin-1(2H)-yl)phenyl)piperidin-4-yl)methyl)piperazin-1-yl)-9,10-dihydro-4H-benzo[d]pyrazolo[1,5-a][1,3]diazepine-3-carboxamide], the IC50 in the test on HEK-293 cells was greater than 10000 nM. This compound displayed a half-maximal degradation concentration (DC50) at BTK of 4.37 nM.

In the case of `Cc1c(C(=O)Nc2cn(C)cn2)ccc(-c2nn3c(c2C(N)=O)Nc2ccc(N4CCN(CC5CCN(c6ccc(N7CCC(=O)NC7=O)cc6)CC5)CC4)cc2CC3)c1F` [Example B87, 7-(4-((1-(4-(2,4-dioxotetrahydropyrimidin-1(2H)-yl)phenyl)piperidin-4-yl)methyl)piperazin-1-yl)-2-(2-fluoro-3-methyl-4-((1-methyl-1H-imidazol-4-yl)carbamoyl)phenyl)-9,10-dihydro-4H-benzo[d]pyrazolo[1,5-a][1,3]diazepine-3-carboxamide], the IC50 with HEK-293 cells is greater than 10000 nM. Also, the DC50 at BTK turned out to be 0.591 nM.

With `Cc1c(C(=O)Nc2cn(C)cn2)ccc(-c2nn3c(c2C(N)=O)Nc2ccc(N4CCN(CCc5cc(F)c(C6CCC(=O)NC6=O)c(F)c5)CC4)cc2CC3)c1F` (stereo not drawn) [Example B88, 7-(4-(4-(2,6-dioxopiperidin-3-yl)-3,5-difluorophenethyl)piperazin-1-yl)-2-(2-fluoro-3-methyl-4-((1-methyl-1H-imidazol-4-yl)carbamoyl)phenyl)-9,10-dihydro-4H-benzo[d]pyrazolo[1,5-a][1,3]diazepine-3-carboxamide], the IC50 with HEK-293 cells is greater than 10000 nM. The DC50 on BTK was found to be 1.63 nM.

On to `Cc1c(C(=O)Nc2cn(C)cn2)ccc(-c2nn3c(c2C(N)=O)Nc2ccc(N4CCN(CCc5cccc6c5oc(=O)n6C5CCC(=O)NC5=O)CC4)cc2CC3)c1F` (stereo not drawn) [Example B90, 7-(4-(2-(3-(2,6-dioxopiperidin-3-yl)-2-oxo-2,3-dihydrobenzo[d]oxazol-7-yl)ethyl)piperazin-1-yl)-2-(2-fluoro-3-methyl-4-((1-methyl-1H-imidazol-4-yl)carbamoyl)phenyl)-9,10-dihydro-4H-benzo[d]pyrazolo[1,5-a][1,3]diazepine-3-carboxamide], for which the IC50 in the test with HEK-293 cells is greater than 10000 nM. This compound also had a DC50 on BTK of 0.706 nM.
